Here are results for seven compounds from US20090305239A1, “Methods and compositions for determing a level of biologically active serum paraoxonase” (priority 2005, published 2009).

Where “and” joins values, the source holds several entries; their conditions need not be identical. Identical values can stand only once.

Assay [1] has as its target T1, PON1 in human sera (Homo sapiens, UniProt P27169). Put plainly: Serum lactonase activity with TBBL (DTNB, 412 nm), with and without inhibitors. Format: biochemical.
Description: (§1) Hydrolysis of phenyl acetate was monitored directly by absorbance at 270 nm (FIG. 2b).
(§2) The reaction mixtures of phenyl acetate contained 1 mM phenyl acetate from 500 mM stock in methanol. All the reaction mixtures contained final 1% DMSO. […] The serum was incubated with the inhibitors for 5-10 minutes before the initiation of the reaction.
(§3) In parallel, we the PON1 activity was determined with phenyl acetate, which is routinely used as a probe for PON1 levels in the serum.
Assay [2] deals with T1, PON1 in human sera. Particulars: samples #1 and #2.
Description: as §1, §2, §3
The target of assay [3] is T1, PON1 in human sera. Put plainly: biochemical. The following applies: read-out: Serum activity with 1 mM phenyl acetate, 100 μM HQ (% of uninhibited activity), human serum 1:400 pre-incubated with 100 μM HQ; samples #1 and #2.
Description: as §1, §2, §3
Assay [4] relates to recombinant PON1 variant rePON1-G2E6. The following applies: substrate hydrolysis by rePON1; 50 mM Tris pH 8.0, 1 mM CaCl2, 50 mM NaCl; DTNB detection.
Description: The kinetic parameters of enzymatic hydrolysis of the three TXBLs by PON1 were determined by detecting the released thiol moiety with DTNB.
Kinetics were performed with recombinant PON1 variant rePON1-G2E6 expressed in fusion with a thioredoxin and 6×His tag, and purified as described^[19].
Kinetic measurements with DTNB—The rates of enzymatic hydrolyses of the thioalkyl-substituted lactones were determined in 50 mM Tris pH 8.0 with 1 mM CaCl2 and 50 mM NaCl (activity buffer). The enzyme stocks were kept in activity buffer containing 0.1% tergitol, and the enzyme concentration used was 8.375×10^−9 M. Stocks of 100-400 mM of substrates were prepared in acetonitrile and diluted with the reaction buffer immediately before initializing the reaction. […] The substrate concentrations were varied in the range of 0.3×KM up to (2-3)×KM. The co-solvent percentage was kept at 1% in all reactions. The DTNB dye (Ellman's reagent, 5′,5-dithio bis(2-nitrobenzoic acid) was used from 100 mM stock in DMSO, at a final concentration of 0.5 mM. An ε412 nm=7000 OD/M was used to calculate the activity. Product formation was monitored spectrophotometrically at 412 nm in 200 μl reaction volumes, using 96-well plates, on a microtiter plate reader (PowerWave HT™ Microplate Scanning Spectrophotometer; optical length ˜0.5 cm). Initial velocities (v0) were determined at eight different concentrations for each substrate. v0 values were corrected for the background rate of spontaneous hydrolysis in the absence of enzyme. Kinetic parameters (kcat, KM, kcat/KM) were obtained by fitting the data to the Michaelis-Menten equation [v0=kcat[E]0[S]0/([S]0+KM)], using the program Kaleidagraph 5.0.
For assay [5], the system named is E. coli cells expressing recombinant PON1 (rePON1). Kind of assay: Detection of PON1 lactonase activity in living cells by FACS in w/o/w emulsions with TBBL and CPM. Format: cell-based. The following applies: TBBL with thiol-detecting dye CPM, emission at 530 nm, single E. coli cells in w/o/w emulsion. The source says:
Shown are representative histograms of the fluorescent emission at 530 nm (the thiol-CPM adduct) for single cells expressing GFP and PON1 (white), and control cells with GFP only (grey).
PON1 activity was also detected in living cells, using FACS (fluorescence-activated cell sorter) and emulsion droplets that compartmentalize the cells together with the products of the enzymatic activity^[15, 16]. […] The w/o emulsion was then re-emulsified, to generate the w/o/w double emulsion with a continuous water phase that is amenable to FACS^[15]. The FACS triggering threshold was set for the emission of GFP, and an appropriate gate was chosen corresponding to the level of emission of single E. coli cells^[16]. […] A clear difference (>20-fold in mean fluorescence) was observed relative to cells bearing no rePON1
A general note: In flow cytometry, cells or beads pass a laser one at a time.

Assay [6] relates to PON3. Kind of assay: Lactonase activity of PON3 in purified enzyme samples and crude cell lysates. Format: biochemical. The following applies: data not shown.
Assay [7] concerns rePON1. Particulars: rePON1 with 5-alkyl butyrolactones, taken from Ref. 4; cited from earlier work.
Setting [8] is: human serum 1:400 pre-incubated with 5 mM EDTA.

A word on the Km: it is the substrate concentration at which the rate is half of its maximum. What is called kcat is the maximal rate divided by the concentration of active sites.

T1 sequence (P27169 whole entry): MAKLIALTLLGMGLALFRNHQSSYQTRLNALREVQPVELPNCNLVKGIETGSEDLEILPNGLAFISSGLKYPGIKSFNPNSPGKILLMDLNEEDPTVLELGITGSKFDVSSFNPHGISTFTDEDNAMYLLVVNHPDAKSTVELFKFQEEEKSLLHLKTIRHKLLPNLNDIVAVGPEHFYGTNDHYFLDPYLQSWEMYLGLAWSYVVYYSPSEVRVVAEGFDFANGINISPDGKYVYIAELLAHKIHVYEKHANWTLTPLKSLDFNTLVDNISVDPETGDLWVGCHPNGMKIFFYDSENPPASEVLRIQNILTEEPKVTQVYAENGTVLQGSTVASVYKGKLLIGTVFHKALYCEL

In the case of `O=C(O)CN(CCN(CC(=O)O)CC(=O)O)CC(=O)O` [EDTA], the “Serum activity with 0.5 mM TBBL, 5 mM EDTA” value in assay [1] (human serum 1:400 pre-incubated with 5 mM EDTA, samples #1 and #2) is 0.04 ± 0.01 μM product/min and 0.06 ± 0.01 μM product/min. The “inhibition rates by EDTA” value in assay [1] (serum lactonase (TBBL) and aryl esterase (phenyl acetate) activities, 5 mM EDTA) is more than 99%. Also, in assay [2] (setting [8]), the “Serum activity with 1 mM phenyl acetate, 5 mM EDTA” value is approximately 0 μM product/min and the “Serum activity with 1 mM phenyl acetate, 5 mM EDTA (% of uninhibited activity)” value is on record as “(0%)”.

Consider `Oc1ccc2ccccc2n1` [HQ, 2-hydroxyquinoline], for which the “Serum activity with 0.5 mM TBBL, 100 μM HQ” value in assay [1] (human serum 1:400 pre-incubated with 100 μM HQ, samples #1 and #2) is 2.09 ± 0.04 μM product/min and 1.80 ± 0.01 μM product/min. Also, the activity at 100 µM in assay [1] (read-out: Serum activity with 0.5 mM TBBL, 100 μM HQ (% of uninhibited activity), human serum 1:400 pre-incubated with 100 μM HQ, samples #1 and #2) was determined as 8.6%; in assay [3], 4.9%. The “Serum activity with 1 mM phenyl acetate, 100 μM HQ” value in assay [2] (human serum 1:400 pre-incubated with 100 μM HQ) is 5.9 ± 0.4 μM product/min and 3.9 ± 0.3 μM product/min.

Consider `CCCCSC1CCC(=O)O1` (stereo not drawn) [TBBL, 5-butylsulfanyl-dihydro-furan-2-one], for which, in assay [4], the Km stood at 270 ± 40 µM and the kcat turned out to be 116 ± 4 s⁻¹. In assay [5], the “difference in mean fluorescence relative to cells bearing no rePON1” value is recorded as more than 20 fold. For the same compound, in assay [6], the “lactonase activity of PON3 assayed with the substrate” value is “could be assayed”.

As for `CCSC1CCC(=O)O1` (stereo not drawn) [TEBL, 5-ethylsulfanyl-dihydro-furan-2-one], in assay [4], the Michaelis constant (Km) turned out to be 360 ± 50 µM and the kcat stood at 161 ± 10 s⁻¹. In addition, the “lactonase activity of PON3 assayed with the substrate” value in assay [6] was “could be assayed”.

In the case of `CCCCCCSC1CCC(=O)O1` (stereo not drawn) [THBL, 5-hexylsulfanyl-dihydro-furan-2-one], in assay [4], the Km was 350 ± 30 µM and the kcat was 52.4 ± 2.6 s⁻¹.

As to `CCCCCC1CCC(=O)O1` (stereo not drawn) [γ-nonanoic lactone], in assay [7], the Km was 390 ± 30 µM and the kcat was 31 ± 2 s⁻¹.

For the compound `CCCCCCCC1CCC(=O)O1` (stereo not drawn) [γ-undecanoic lactone], in assay [7], the Km is 600 ± 70 µM and the kcat was 62 ± 2 s⁻¹.
